From US9309254B2, “Pyrimidinyl-diazospiro compounds” (CONVERGENCE PHARMACEUTICALS LIMITED, priority 2012, dated 2016) come the findings set out here.

The structures appear in SMILES notation. Where a name gives a salt, the structure may show the parent alone. Read-outs that look alike come from different tables or passages of the source.

This assay has as its target T1, hNaV1.7 (Homo sapiens, UniProt Q15858).
T1 construct: expressed in transfected cells; host or cells: HEK293
The experiment in a line: QPatch NaV1.7 assay. The conditions noted are these: HEK293-hNaV1.7 cells, QPatch16x. The class given is cell-based. How it is done: The compounds of the invention were tested in a QPatch NaV1.7 assay.
HEK293-hNaV1.7 cells were grown in DMEM-F12+10% FBS culture media at 37° C. At a confluency of 50-70% cells were dissociated from culture flasks & triturated to ensure unicellular cell suspension; cell density was measured & adjusted to 2-3×10^6 cells/ml. Recordings were obtained using QPatch16x. The external solution was (in mM): NaCl, 128; KCl, 5; MgCl2, 2; CaCl2, 2; Glucose, 30; HEPES, 15; pH 7.3, 305-315 mOsm. Following seal formation and whole-cell access using internal solution (containing in mM: CsF, 135; EGTA/CsOH, 1/5; HEPES 10; NaCl, 10; pH 7.3, 310-320mOsM), voltage pulse protocols were applied. Initially a steady state inactivation voltage protocol was used to determine the half-maximal voltage for steady state inactivation (V1/2 SSI). Two holding voltages were used to determine test drug inhibition: −90 mV, where most of the channels are in a closed state; and V1/2 SSI, where half of the channels are inactivated. Currents were elicited every 10 seconds by stepping to a membrane potential of 0 mV for 20 ms. Four-point cumulative concentration responses were derived by determining the peak current amplitude at each concentration of test drug over 120 second application. Curves were fitted with the Hill equation yielding pIC50 values at −90 mV and V1/2 SSI holding potentials.
In general terms: The patch-clamp technique gives a direct electrical read-out from membranes.

Setting [1] is: holding voltage V1/2 SSI, where half of the channels are inactivated, read-out: QP Nav1.7 SSI vhalf pIC50 (converted).
[2] abbreviates: holding voltage −90 mV, where most of the channels are in a closed state, read-out: QP Nav1.7 - 90 mV pIC50 (converted).

T1 sequence (Q15858 whole entry): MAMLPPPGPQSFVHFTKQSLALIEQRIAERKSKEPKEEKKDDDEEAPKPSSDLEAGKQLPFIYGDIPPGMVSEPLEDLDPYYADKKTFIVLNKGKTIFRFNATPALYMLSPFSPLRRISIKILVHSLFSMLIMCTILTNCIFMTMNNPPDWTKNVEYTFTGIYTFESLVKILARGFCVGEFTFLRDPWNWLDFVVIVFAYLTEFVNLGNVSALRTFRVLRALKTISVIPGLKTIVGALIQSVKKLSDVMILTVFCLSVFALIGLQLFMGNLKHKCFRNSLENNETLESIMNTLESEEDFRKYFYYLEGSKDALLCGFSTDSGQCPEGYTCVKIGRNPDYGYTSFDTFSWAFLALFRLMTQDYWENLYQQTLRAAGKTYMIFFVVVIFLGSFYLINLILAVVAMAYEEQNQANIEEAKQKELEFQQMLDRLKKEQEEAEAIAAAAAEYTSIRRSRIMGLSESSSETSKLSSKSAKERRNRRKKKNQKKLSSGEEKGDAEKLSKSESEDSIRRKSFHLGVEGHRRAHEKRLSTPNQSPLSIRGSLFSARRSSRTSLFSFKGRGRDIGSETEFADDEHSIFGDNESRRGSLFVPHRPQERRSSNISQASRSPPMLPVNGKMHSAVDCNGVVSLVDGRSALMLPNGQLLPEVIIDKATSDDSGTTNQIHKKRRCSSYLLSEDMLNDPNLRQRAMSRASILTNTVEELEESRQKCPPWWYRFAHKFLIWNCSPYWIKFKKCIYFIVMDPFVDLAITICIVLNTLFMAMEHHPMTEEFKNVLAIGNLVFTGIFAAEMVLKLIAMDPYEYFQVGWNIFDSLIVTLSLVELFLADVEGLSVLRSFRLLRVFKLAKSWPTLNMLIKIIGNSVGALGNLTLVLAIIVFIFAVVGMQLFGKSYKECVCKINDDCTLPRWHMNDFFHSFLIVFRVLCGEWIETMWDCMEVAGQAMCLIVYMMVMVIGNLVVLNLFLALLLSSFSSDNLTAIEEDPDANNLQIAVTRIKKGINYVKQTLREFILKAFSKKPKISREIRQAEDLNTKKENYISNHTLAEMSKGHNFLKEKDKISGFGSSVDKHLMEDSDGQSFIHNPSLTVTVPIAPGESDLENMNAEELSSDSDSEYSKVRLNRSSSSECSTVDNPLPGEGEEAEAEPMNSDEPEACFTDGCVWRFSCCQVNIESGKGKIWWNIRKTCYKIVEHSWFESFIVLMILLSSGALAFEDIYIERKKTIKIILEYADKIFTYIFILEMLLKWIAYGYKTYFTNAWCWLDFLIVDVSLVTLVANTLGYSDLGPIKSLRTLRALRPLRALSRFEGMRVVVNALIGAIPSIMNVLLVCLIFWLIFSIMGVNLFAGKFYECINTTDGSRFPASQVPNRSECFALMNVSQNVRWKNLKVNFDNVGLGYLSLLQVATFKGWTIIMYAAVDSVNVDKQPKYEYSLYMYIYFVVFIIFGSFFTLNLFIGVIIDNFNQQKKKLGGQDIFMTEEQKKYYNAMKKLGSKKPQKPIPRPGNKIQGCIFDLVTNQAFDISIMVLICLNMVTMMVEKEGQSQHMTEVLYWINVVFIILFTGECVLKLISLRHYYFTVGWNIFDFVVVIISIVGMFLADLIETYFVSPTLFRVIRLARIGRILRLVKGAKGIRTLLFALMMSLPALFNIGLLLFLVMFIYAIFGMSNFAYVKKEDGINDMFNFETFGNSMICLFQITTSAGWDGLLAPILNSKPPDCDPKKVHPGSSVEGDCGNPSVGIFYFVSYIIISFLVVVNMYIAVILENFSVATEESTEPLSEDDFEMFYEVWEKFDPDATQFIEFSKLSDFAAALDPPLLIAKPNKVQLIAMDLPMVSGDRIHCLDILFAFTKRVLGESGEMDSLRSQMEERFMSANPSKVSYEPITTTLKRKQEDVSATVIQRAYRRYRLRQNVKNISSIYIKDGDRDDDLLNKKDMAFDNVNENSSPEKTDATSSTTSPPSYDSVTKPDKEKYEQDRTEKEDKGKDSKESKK

For the molecule `Cc1cc(-c2ccc(OC(F)(F)F)cc2)nc([C@H]2CC[C@@]3(CCN(C)C3=O)N2)n1` [Example 27, (2R,5S)-7-Methyl-2-[4-methyl-6-[4-(trifluoromethoxy)phenyl]pyrimidin-2-yl]-1,7-diazaspiro[4.4]nonan-6-one hydrochloride], the IC50 was 10 µM under setting [1] and 63.1 µM under setting [2].
For the molecule `Cc1cc(-c2ccc(OC(F)(F)F)cc2)nc([C@@H]2CC[C@@]3(CCN(C)C3=O)N2)n1` [Example 28, (2S,5S)-7-Methyl-2-[4-methyl-6-[4-(trifluoromethoxy)phenyl]pyrimidin-2-yl]-1,7-diazaspiro[4.4]nonan-6-one hydrochloride], the IC50 was 50.1 µM under setting [1] and 631 µM under setting [2].
Regarding `Cc1cc(-c2ccc(OC(F)(F)F)cc2)nc([C@@H]2CC[C@]3(CCN(C)C3=O)N2)n1` [Example 29, (2S,5R)-7-Methyl-2-[4-methyl-6-[4-(trifluoromethoxy)phenyl]pyrimidin-2-yl]-1,7-diazaspiro[4.4]nonan-6-one hydrochloride], the IC50 is, setting by setting: under setting [1], 12.6 µM; under setting [2], 126 µM.
Take `Cc1cc(-c2ccc(OC(F)(F)F)cc2)nc([C@H]2CC[C@]3(CCN(C)C3=O)N2)n1` [Example 30, (2R,5R)-7-Methyl-2-[4-methyl-6-[4-(trifluoromethoxy)phenyl]pyrimidin-2-yl]-1,7-diazaspiro[4.4]nonan-6-one hydrochloride]: the IC50 runs as follows: under setting [1], 20 µM; under setting [2], 316 µM.
The corresponding values for `Cc1cc(-c2cc(OC(F)(F)F)ccc2F)nc([C@@H]2CC[C@@]3(CCN(C)C3=O)N2)n1` [Example 31, (2S,5S)-2-[4-[2-Fluoro-5-(trifluoromethoxy)phenyl]-6-methyl-pyrimidin-2-yl]-7-methyl-1,7-diazaspiro[4.4]nonan-6-one hydrochloride] are 3.16 µM and 100 µM.
The corresponding values for `Cc1cc(-c2cc(OC(F)(F)F)ccc2F)nc([C@H]2CC[C@@]3(CCN(C)C3=O)N2)n1` [Example 32, (2R,5S)-2-[4-[2-Fluoro-5-(trifluoromethoxy)phenyl]-6-methyl-pyrimidin-2-yl]-7-methyl-1,7-diazaspiro[4.4]nonan-6-one hydrochloride] are 2.51 µM and 39.8 µM.
As for `Cc1cc(-c2cc(OC(F)(F)F)ccc2F)nc([C@H]2CC[C@]3(CCN(C)C3=O)N2)n1` [Example 33, (2R,5R)-2-[4-[2-Fluoro-5-(trifluoromethoxy)phenyl]-6-methyl-pyrimidin-2-yl]-7-methyl-1,7-diazaspiro[4.4]nonan-6-one hydrochloride], the IC50 under setting [1] was 2 µM and the IC50 under setting [2] was 20 µM.
The corresponding values for `Cc1cc(-c2cc(OC(F)(F)F)ccc2F)nc([C@@H]2CC[C@]3(CCN(C)C3=O)N2)n1` [Example 34, (2S,5R)-2-[4-[2-Fluoro-5-(trifluoromethoxy)phenyl]-6-methyl-pyrimidin-2-yl]-7-methyl-1,7-diazaspiro[4.4]nonan-6-one hydrochloride] are 7.94 µM and 79.4 µM.
Turning to `CCOc1ccc(F)c(-c2cc(C)nc([C@H]3CC[C@@]4(CCCNC4=O)N3)n2)c1` [Example 37, hydrochloride], the IC50 was 1.58 µM under setting [1] and 15.8 µM under setting [2].
On to `CCOc1ccc(F)c(-c2cc(C)nc([C@@H]3CC[C@@]4(CCCNC4=O)N3)n2)c1` [Example 38, hydrochloride], for which the IC50 is, setting by setting: under setting [1], 3.16 µM; under setting [2], 50.1 µM.
Regarding `Cc1cc(-c2ccc(C(F)(F)F)cc2)nc([C@H]2CC[C@@]3(CCNC3=O)N2)n1` [Example 39, (2R,5S)-2-[4-Methyl-6-[4-(trifluoromethyl)phenyl]pyrimidin-2-yl]-1,7-diazaspiro[4.4]-nonan-6-one hydrochloride], the IC50 under setting [1] is 15.8 µM and the IC50 under setting [2] was 126 µM.
Regarding `Cc1cc(-c2ccc(C(F)(F)F)cc2)nc([C@@H]2CC[C@]3(CCNC3=O)N2)n1` [Example 40, (2S,5R)-2-[4-Methyl-6-[4-(trifluoromethyl)phenyl]-pyrimidin-2-yl]-1,7-diazaspiro[4.4]nonan-6-one hydrochloride], the IC50 is 31.6 µM under setting [1] and 158 µM under setting [2].
On the same counts, the results for `Cc1cc(-c2ccc(C(F)(F)F)cc2)nc([C@@H]2CC[C@@]3(CCNC3=O)N2)n1` [Example 41, (2S,5S)-2-[4-Methyl-6-[4(trifluoromethyl)-phenyl]-pyrimidin-2-yl]-1,7-diazaspiro[4.4]nonan-6-one hydrochloride] are 2.51 µM and 25.1 µM.
Consider `Cc1cc(-c2ccc(C(F)(F)F)cc2)nc([C@H]2CC[C@]3(CCNC3=O)N2)n1` [Example 42, (2R,5R)-2-[4-Methyl-6-[4-(trifluoromethyl)phenyl]pyrimidin-2-yl]-1,7-diazaspiro[4.4]nonan-6-one hydrochloride], for which the IC50 runs as follows: under setting [1], 50.1 µM; under setting [2], 501 µM.
Take `Cc1cc(-c2ccc(C(F)(F)F)cc2)nc([C@H]2CC[C@@]3(CC(C)(C)NC3=O)N2)n1` [Example 43, (2R,5S)-8,8-Dimethyl-2-[4-methyl-6-[4-(trifluoromethyl)phenyl]pyrimidin-2-yl]-1,7-diazaspiro[4.4]nonan-6-one hydrochloride]: the IC50 under setting [1] is 5.01 µM and the IC50 under setting [2] is 31.6 µM.
In the case of `Cc1cc(-c2ccc(C(F)(F)F)cc2)nc([C@@H]2CC[C@@]3(CC(C)(C)NC3=O)N2)n1` [Example 44, (2S,5S)-8,8-Dimethyl-2-[4-methyl-6-[4-(trifluoromethyl)phenyl]pyrimidin-2-yl]-1,7-diazaspiro[4.4]nonan-6-one hydrochloride], the IC50 is 39.8 µM under setting [1] and 158 µM under setting [2].
`Cc1cc(-c2ccc(C(F)(F)F)cc2)nc([C@@H]2CC[C@]3(CC(C)(C)NC3=O)N2)n1` [Example 45, (2S,5R)-8,8-Dimethyl-2-[4-methyl-6-[4-(trifluoromethyl)phenyl]pyrimidin-2-yl]-1,7-diazaspiro[4.4]nonan-6-one hydrochloride]: the IC50 by setting is: under setting [1], 20 µM; under setting [2], 100 µM.
As for `Cc1cc(-c2ccc(C(F)(F)F)cc2)nc([C@H]2CC[C@]3(CC(C)(C)NC3=O)N2)n1` [Example 46, (2R,5R)-8,8-Dimethyl-2-[4-methyl-6-[4-(trifluoromethyl)phenyl]pyrimidin-2-yl]-1,7-diazaspiro[4.4]nonan-6-one hydrochloride], the IC50 is, setting by setting: under setting [1], 3.16 µM; under setting [2], 25.1 µM.
